From patent publication EP0288278B1, “Chemical derivatives of GHL-CU” (PROCYTE CORPORATION, priority 1987, dated 1994) come the findings set out here.

The test concerns incision wounds. Nature of the test: Wound healing of incision wounds in mice. The conditions noted are these: incision wounds swabbed daily, scored after 5 days. Format: in vivo. From the text:
In mice, incision wounds to the flanks (six 1.5 cm wounds per animal) were swabbed daily with either a solution containing GHL-Cu (100 micrograms per mL) in phosphate-buffered saline (PBS) or PBS alone (6 animals each group). After 5 days, the wounds were scored 1.0 for complete closure, 0.5 for partial closure, and 0.0 for non-closure.

For the substance “glycyl-L-histidyl-L-lysine n-palmityl ester: copper (II)”, the “healing of wounds in mice” value is “significantly enhances the wound-healing process”.
The same measure for “glycyl-L-histidyl-L-lysine n-stearyl ester: copper (II)”: “significantly enhances the wound-healing process”.
